Experiments:
SARS-CoV-2 RdRp = SARS-CoV-2 RdRp (Severe acute respiratory syndrome coronavirus 2, UniProt P0DTD1); conditions: biochemical assays; cited from earlier work
SARS-CoV-2 = conditions: hamsters; cited from earlier work
[1] = system: SARS-CoV-2 infection of human brain organoids; conditions: cited from earlier work
[2] = biological target: SARS-CoV RdRp (nsp12, nsp7 and nsp8) (Severe acute respiratory syndrome coronavirus, UniProt P0C6X7); format: biochemical
[3] = biological target: T1, SARS-CoV-2 RdRp (nsp12, nsp7 and nsp8) (Severe acute respiratory syndrome coronavirus 2, UniProt P0DTD1); format: biochemical
Therminator II = Therminator II (Thermococcus sp., UniProt Q56366, A485L/D141A/E143A/Y409V); conditions: 10 µM nucleotide, DNA template and primer, MALDI-TOF MS
[4] = biological target: T1, SARS-CoV-2 RdRp (nsp12, nsp7 and nsp8); conditions: kinetic studies of Gordon et al 2020a, b; RDV-TP with MERS-CoV and SARS-CoV-2 RdRps; cited from earlier work
Therminator IX = conditions: 10 µM nucleotide, DNA template and primer, MALDI-TOF MS
Thermo Sequenase = test: DNA polymerase extension reaction, MALDI-TOF MS, high fidelity polymerase; conditions: 10 µM nucleotide, DNA template and primer
[5] = system: SARS-CoV-2 in Vero and pulmonary epithelial cell culture; conditions: in the presence or absence of Ritonavir; cited from earlier work
[6] = biological target: SARS-CoV-2 exonuclease complex (nsp14/nsp10) (Severe acute respiratory syndrome coronavirus 2, UniProt P0DTD1); test: Inhibition of SARS-CoV-2 exonuclease, MALDI-TOF MS; format: biochemical; conditions: 30 nM nsp14/nsp10, 37° C., 15 min
[7] = system: SARS-CoV-2 in Calu-3 lung cells; conditions: screen of 1200 drugs; cited from earlier work

Therminator II, sequence (Q56366 whole entry D141A/E143A/Y409V/A485L): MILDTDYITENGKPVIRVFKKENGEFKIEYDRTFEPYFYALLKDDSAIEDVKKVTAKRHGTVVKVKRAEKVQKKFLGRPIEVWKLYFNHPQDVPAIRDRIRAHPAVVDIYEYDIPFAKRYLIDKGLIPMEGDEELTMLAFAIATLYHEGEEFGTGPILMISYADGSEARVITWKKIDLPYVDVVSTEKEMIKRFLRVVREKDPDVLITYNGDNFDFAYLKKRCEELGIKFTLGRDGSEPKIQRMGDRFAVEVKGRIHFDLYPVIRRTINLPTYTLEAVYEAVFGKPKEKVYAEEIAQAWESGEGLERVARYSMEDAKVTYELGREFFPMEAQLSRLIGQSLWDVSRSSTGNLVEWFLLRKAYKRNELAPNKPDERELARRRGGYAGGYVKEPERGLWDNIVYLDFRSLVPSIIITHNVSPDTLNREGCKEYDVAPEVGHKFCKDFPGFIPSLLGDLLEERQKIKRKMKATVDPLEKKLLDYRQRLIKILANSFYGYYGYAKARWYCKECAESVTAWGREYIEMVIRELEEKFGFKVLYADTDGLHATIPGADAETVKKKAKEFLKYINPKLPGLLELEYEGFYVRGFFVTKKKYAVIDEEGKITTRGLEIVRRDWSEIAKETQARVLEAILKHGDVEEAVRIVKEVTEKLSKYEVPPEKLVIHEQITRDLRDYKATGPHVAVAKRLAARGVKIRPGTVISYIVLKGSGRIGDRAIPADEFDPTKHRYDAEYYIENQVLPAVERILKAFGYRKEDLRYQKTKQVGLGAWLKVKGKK

Cc1ccc(C(=O)Nc2ccc(S(=O)(=O)O)c3cc(S(=O)(=O)O)cc(S(=O)(=O)O)c23)cc1NC(=O)c1cccc(NC(=O)Nc2cccc(C(=O)Nc3cc(C(=O)Nc4ccc(S(=O)(=O)O)c5cc(S(=O)(=O)O)cc(S(=O)(=O)O)c45)ccc3C)c2)c1 [Suramin]
potency relative to Remdesivir (SARS-CoV-2 RdRp): 20 ×

CNC(=C[N+](=O)[O-])NCCSCc1ccc(CN(C)C)o1.O=C([O-])CC(O)(CC(=O)[O-])C(=O)[O-].[Bi+3] [Ranitidine bismuth citrate]
viral loads in the respiratory tract (SARS-CoV-2): decrease viral loads in the respiratory tract of hamsters

CC(C)OC(=O)[C@H](C)N[P@](=O)(OC[C@H]1O[C@@H](n2ccc(=O)[nH]c2=O)[C@](C)(F)[C@@H]1O)Oc1ccccc1 [Sofosbuvir]
protection from SARS-CoV-2 infection [1]: protect human brain organoids from SARS-CoV-2 infection

2′-fluoro-2′-methyl-UTP [2′-F,Me-UTP]
termination of the polymerase reaction [2]: permanent terminators | incorporation efficiency [3]: efficient substrates of the RdRp | termination of the polymerase reaction [3]: single nucleotide (2′-F,Me-UMP) primer extension product | incorporation and block of further nucleotide incorporation (Therminator II): able to be incorporated and block further nucleotide incorporation | incorporation efficiency relative to the natural nucleotide [4]: lower incorporation efficiency than the natural nucleotide | incorporation and block of further nucleotide incorporation (Therminator IX): able to be incorporated and block further nucleotide incorporation | incorporation and block of further nucleotide incorporation (Thermo Sequenase): no incorporation

COC(=O)N[C@H](C(=O)N[C@@H](Cc1ccccc1)[C@@H](O)CN(Cc1ccc(-c2ccccn2)cc1)NC(=O)[C@@H](NC(=O)OC)C(C)(C)C)C(C)(C)C [atazanavir]
inhibition of viral production [5]: inhibits viral production

COC[C@H]1C[C@@H](c2nc(-c3ccc4c(c3)COc3cc5c(ccc6nc([C@@H]7CC[C@H](C)N7C(=O)[C@@H](NC(=O)OC)C(C)C)[nH]c65)cc3-4)c[nH]2)N(C(=O)[C@H](NC(=O)OC)c2ccccc2)C1 [Velpatasvir]
inhibition of exonuclease activity ([6]; 50 µM inhibitor): shows inhibition of the exonuclease activity | inhibition of exonuclease activity ([6]; 150 µM inhibitor): increased inhibition of exonuclease activity | synergism with Remdesivir in inhibiting viral production [7]: strongest effects
